Patent publication US5001064A, “Phosphatidylinositol 4-kinase” (Washington University, priority 1988, dated 1991)
“Also recorded” adds a separate entry of the source. Each block holds one compound with its values, some of them ahead of it.

Legend:
Format in all cases: biochemical, bovine
[1] = target: T1, PtdIns 4-kinase (Bos taurus, UniProt A6QLN5); test: Specificity of PtdIns 4-kinase for a lipid substrate; conditions: for Relative activity with lipid added: lipid 0.25 mg/ml, organic extractable label, background subtracted, PtdIns (soybean) = 100; for phosphorylation of lipid by the purified enzyme: standard assay buffer with the indicated lipid
T1 construct: It constitutes the major PtdIns 4-kinase activity of bovine uteri; from tissue; host or cells: bovine uterus (acetone powder, purified over ammonium sulfate, Mono Q, S-Sepharose, Mono Q, Mono P and hydroxylapatite)
Experimental: (§1) PtdIns 4-kinase activity was assayed in 60 μl at 30° C. in 20 mM BisTris-HCl (pH 7.0), 10 mM MgCl2, 1.0% Triton X-100, 0.25 mg/ml phosphatidylinositol, and 150 μM ATP (1.25 μCi[-^32 P]ATP), unless otherwise noted. The reaction was terminated by the addition of 12 μl of cold HCl, 120 μl of cold methanol, 150 μl of chloroform, and 40 μl of H2 O. The extracted samples were centrifuged at 12,000 × g for 1 min. and the aqueous layer removed and discarded. When needed, the organic phase was washed with 40 μl of cold methanol and 40 μl of cold 1.0 N HCl, centrifuged at 12,000 × g, and the aqueous layer was removed. The organic phase was then dried under vacuum in a Savant speed-vac, resuspended in 40 μl of chloroform/methanol (2:1), and chromatographed on potassium oxalate-impregnated Silica Gel 60 thin layer chromatography plates (TLC). The solvent system used consisted of chloroform/methanol/ammonium hydroxide/water (51:39.6:3:8.4). For two-dimensional thin layer chromatography, the preceding solvent system was used for the first dimension, and chloroform/methanol/acetic acid/water (50:39:1:10) was used for the second dimension. Standards were visualized by exposing the TLC plate to iodine vapor. The reaction product, phosphatidylinositol 4-phosphate, was visualized by autoradiography, and the corresponding area of the TLC plate was scraped and quantitated by Cherenkov counting. This assay was linear with respect to both protein concentration and time. For tests utilizing [^3 H]PtdIns, the corresponding areas of the TLC plates were scraped and the silica powder was suspended in a gel of Aquasol/H2 O (4:1) before counting. All assays (except column fractions) were done in duplicate or triplicate.
The specificity of PtdIns 4-kinase for lipid substrates was also examined using standard assay buffer containing […] of the indicated lipid. After extraction the organic phase was washed three times, dried in vacuo, and the organic extractable label was quantitated. Control reactions (no lipid) established background levels which were then subtracted from the experimentally derived values (Table III). […] The sensitivity of the above technique was limited and appeared to show little or no activity with lyso-PtdIns; however, subsequent TLC of these reactions established that the enzyme would phosphorylate lyso-PtdIns about 10% as well as soybean Ptdlns. […] Except for lyso-Ptdlns, the results presented in Table III were confirmed by thin layer chromatography.

[2] = target: T1, PtdIns 4-kinase; test: Specificity of PtdIns 4-kinase for a nucleotide phosphoryl donor ([3H]PtdIns as substrate); conditions: for utilization as phosphoryl donor (words): [3H]PtdIns as substrate; for activity at 150 µM: read-out: Relative activity with nucleotide donor
Experimental: as §1, with “This assay was linear with respect to both protein concentration and time.” left out

[3] = target: T1, PtdIns 4-kinase; test: Effect of potential inhibitors on PtdIns 4-kinase activity; conditions: for effectiveness as inhibitor / relative activity at 1000 µM / Relative activity with potential inhibitor: PtdIns 0.1 mg/ml; for effectiveness as inhibitor: soluble compounds approximately 10-fold above the PtdIns concentration; for relative activity at 1000 µM: read-out: Relative activity with potential inhibitor, heading: Relative activity with potential inhibitor; for inhibition: approximately 5-fold molar excess over PtdIns (0.1 mg/ml)
Experimental: as §1, with “This assay was linear with respect to both protein concentration and time.” left out
Various PtdIns-related compounds were tested as possible inhibitors of this purified PtdIns 4-kinase. A concentration of PtdIns of 0.1 mg/ml was used in these tests to accentuate possible competitive inhibition by potential inhibitors (Table IV).

[4] = nucleotide donor 150 μM, ATP = 100

T1 sequence (A6QLN5 1-479): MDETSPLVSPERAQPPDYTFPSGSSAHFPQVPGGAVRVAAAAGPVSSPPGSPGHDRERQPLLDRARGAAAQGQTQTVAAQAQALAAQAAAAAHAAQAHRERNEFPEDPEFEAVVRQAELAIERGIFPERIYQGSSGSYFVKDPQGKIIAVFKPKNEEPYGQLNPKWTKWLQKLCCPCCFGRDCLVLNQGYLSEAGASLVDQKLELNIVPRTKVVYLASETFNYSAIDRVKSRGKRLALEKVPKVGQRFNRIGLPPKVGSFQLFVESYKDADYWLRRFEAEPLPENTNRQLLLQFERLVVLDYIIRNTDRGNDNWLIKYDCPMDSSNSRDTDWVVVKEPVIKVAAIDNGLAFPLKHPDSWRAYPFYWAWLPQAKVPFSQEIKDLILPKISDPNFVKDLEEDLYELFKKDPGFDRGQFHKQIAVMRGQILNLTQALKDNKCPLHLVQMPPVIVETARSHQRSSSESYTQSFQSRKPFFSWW

Relative activity with lipid added [1]: 0%
phosphorylation of lipid by the purified enzyme [1]: lacked diacylglycerol kinase activity
Compound: CCCCC/C=C\C/C=C\C/C=C\C/C=C\CCCC(=O)O[C@@H](CO)COC(=O)CCCCCCCCCCCCCCCCC [1-Stearoyl-2-arachidonoyl-sn-glycerol]

activity at 150 µM [2, 4]: 12%
Compound: Nc1ncnc2c1ncn2[C@@H]1O[C@H](COP(=O)(O)OP(=O)(O)O)[C@@H](O)[C@H]1O [ADP]
utilization as phosphoryl donor (words) [2]: No PtdIns-4-P was observed; also recorded: No PtdIns-4-P 5-kinase activity was present

activity at 150 µM [2, 4]: 10%
Compound: Nc1ccn([C@@H]2O[C@H](COP(=O)(O)OP(=O)(O)OP(=O)(O)O)[C@@H](O)[C@H]2O)c(=O)n1 [CTP]
utilization as phosphoryl donor (words) [2]: No PtdIns-4-P was observed; also recorded: No PtdIns-4-P 5-kinase activity was present

activity at 150 µM [2, 4]: 5%
Compound: Nc1nc2c(ncn2[C@@H]2O[C@H](COP(=O)(O)OP(=O)(O)OP(=O)(O)O)[C@@H](O)[C@H]2O)c(=O)[nH]1 [GTP]
utilization as phosphoryl donor (words) [2]: No PtdIns-4-P was observed; also recorded: No PtdIns-4-P 5-kinase activity was present

effectiveness as inhibitor [3]: ineffective as inhibitors
relative activity at 1000 µM ([3]; inhibitor 1.0 mM): 86%
Compound: O=P(O)(OCC(O)CO)O[C@@H]1[C@H](O)[C@H](O)[C@@H](O)[C@H](O)[C@H]1O (stereo partly drawn) [Glycerophospho-D-myo-inositol]

activity at 150 µM [2, 4]: 11%
Compound: O=c1[nH]cnc2c1ncn2[C@@H]1O[C@H](COP(=O)(O)OP(=O)(O)OP(=O)(O)O)[C@@H](O)[C@H]1O [ITP]
utilization as phosphoryl donor (words) [2]: No PtdIns-4-P was observed; also recorded: No PtdIns-4-P 5-kinase activity was present

effectiveness as inhibitor [3]: ineffective as inhibitors
relative activity at 1000 µM ([3]; inhibitor 1.0 mM): 118%
Compound: OC1C(O)C(O)C2(CO2)C(O)C1O (stereo not drawn) [Inositol 2,2'-anhydro-2-C-hydroxymethyl]

effectiveness as inhibitor [3]: ineffective as inhibitors
Relative activity with potential inhibitor ([3]; inhibitor 1.0 mM): 98%
Compound: O=P(O)(O)O[C@H]1[C@H](O)[C@@H](O)[C@H](OP(=O)(O)O)[C@@H](O)[C@H]1O [Ins-1,4-P2]

effectiveness as inhibitor [3]: ineffective as inhibitors
Relative activity with potential inhibitor ([3]; inhibitor 1.0 mM): 89%
Compound: O=P(O)(O)OC1[C@H](O)[C@H](O)C(O)[C@H](O)[C@H]1O (stereo partly drawn) [Ins-1-P]

Compound: CCCCCCCCCCCCCCCC(=O)OC[C@H](COP(=O)(O)O[C@H]1[C@H](O)[C@@H](O)[C@H](OP(=O)(O)O)[C@@H](OP(=O)(O)O)[C@H]1O)OC(=O)CCCCCCCCCCCCCCC [PtdIns-4,5-P2, phosphatidylinositol 4,5-diphosphate]
Relative activity with lipid added [1]: 0%
phosphorylation of lipid by the purified enzyme [1]: nor would it phosphorylate
effectiveness as inhibitor [3]: Neither PtdIns-4-P or PtdIns-4,5-P2 were effective inhibitors
inhibition [3]: 59%
Relative activity with potential inhibitor ([3]; inhibitor 0.02 mg/ml): 109%
Relative activity with potential inhibitor ([3]; inhibitor 0.10 mg/ml): 101%
Relative activity with potential inhibitor ([3]; inhibitor 0.50 mg/ml): 41%

Relative activity with nucleotide donor [2, 4]: 3
Compound: Cc1cn([C@H]2C[C@H](O)[C@@H](COP(=O)(O)OP(=O)(O)OP(=O)(O)O)O2)c(=O)[nH]c1=O [TTP]

activity at 150 µM [2, 4]: 18%
Compound: O=c1ccn([C@@H]2O[C@H](COP(=O)(O)OP(=O)(O)OP(=O)(O)O)[C@@H](O)[C@H]2O)c(=O)[nH]1 [UTP]
utilization as phosphoryl donor (words) [2]: A small amount of PtdIns-4-P was observed

utilization as phosphoryl donor (words) ([2]; listed as 2'-deoxy-ATP): utilized
utilization as phosphoryl donor (words) ([2]; listed as 2-deoxy-ATP): utilized; also recorded: will utilize
activity at 150 µM [2, 4]: 104%
Compound: Nc1ncnc2c1ncn2[C@H]1C[C@H](O)[C@@H](COP(=O)(O)OP(=O)(O)OP(=O)(O)O)O1 [dATP, 2'-deoxy-ATP]

utilization as phosphoryl donor (words) ([2]; listed as 2,3-Dideoxy-ATP): partially effective
utilization as phosphoryl donor (words) ([2]; listed as 2,3-dideoxy-ATP): to a lesser degree will utilize
activity at 150 µM [2, 4]: 39%
Compound: Nc1ncnc2c1ncn2[C@H]1CC[C@@H](COP(=O)(O)OP(=O)(O)OP(=O)(O)O)O1 [ddATP, 2,3-Dideoxy-ATP]

phosphorylation relative to soybean PtdIns, by subsequent TLC ([1]; TLC of the reactions): about 10%
Relative activity with lipid added [1]: 0%
Compound: L-α-lysophosphatidylinositol [Lyso-PtdIns]

Relative activity with lipid added [1]: 1%
phosphorylation of lipid by the purified enzyme [1]: no phosphorylation
Compound: L-α-phosphatidyl-L-serine [Phosphatidylserine]

Relative activity with lipid added [1]: 0%
phosphorylation of lipid by the purified enzyme [1]: no phosphorylation
Compound: L-α-phosphatidylcholine

Compound: L-α-phosphatidylethanolamine
Relative activity with lipid added [1]: 0%
phosphorylation of lipid by the purified enzyme [1]: no phosphorylation

Relative activity with lipid added [1]: 110%
phosphorylation of lipid by the purified enzyme [1]: able to phosphorylate
Compound: Phosphatidylinositol [PtdIns (bovine)]

Relative activity with lipid added [1]: 100%
phosphorylation of lipid by the purified enzyme [1]: able to phosphorylate
Compound: Phosphatidylinositol [PtdIns (soybean)]

Relative activity with lipid added [1]: 0%
phosphorylation of lipid by the purified enzyme [1]: would not phosphorylate
Compound: galactocerebrosides (mixed)

Relative activity with lipid added [1]: 0%
phosphorylation of lipid by the purified enzyme [1]: would not phosphorylate
Compound: glucocerebrosides

Relative activity with lipid added [1]: 0%
inhibition [3]: 42%
Relative activity with potential inhibitor ([3]; inhibitor 0.02 mg/ml): 99%
Relative activity with potential inhibitor ([3]; inhibitor 0.10 mg/ml): 105%
Relative activity with potential inhibitor ([3]; inhibitor 0.50 mg/ml): 58%
Compound: phosphatidylinositol 4-phosphate [PtdIns-4-P]
phosphorylation of lipid by the purified enzyme [1]: lacked detectable PtdIns-4-P 5-kinase activity
effectiveness as inhibitor [3]: Neither PtdIns-4-P or PtdIns-4,5-P2 were effective inhibitors
